Counter-ions that a name gives are not always drawn. Like-named read-outs stand apart in the source and are kept apart here.
Tested on: behaviors of compound-treated mice
Experiment: Neuropharmacological Assay (SmartCube)
Assay type: in vivo
Conditions: for minimal effective dose: Mus musculus, ip, 0.25 h, dose having 50% or more total activity in SmartCube, read-out: MED (minimal effective dose)
In short: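 Mice dosed i.p. 15 min before testing, with compound in N-methyl-2-pyrrolidone/PEG/propylene glycol, were video-recorded and algorithmically compared with reference-drug behavioral signatures. This gave class-match probabilities (antidepressant, anxiolytic, etc.) at the most efficacious of 3 doses. MED was defined as the dose with ≥50% total activity, usually tested across 0.3–30 mpk.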

[1] = SmartCube, i.p. 15 min before test, most efficacious dose(s)
[2] = i.p. 15 min before behavioral test, most efficacious dose(s) of 3 doses

| Structure (SMILES) | minimal effective dose [mg/kg] | AD: ADHD (probability that activity matches class) [1] | AG: analgesic (probability that activity matches class) [1] | AX: anxiolytic (probability that activity matches class) [1] | CE: cognitive enhancer (probability that activity matches class) [1] | DP: anti-depressant (probability that activity matches class) [1] | MS: mood stabilizer (probability that activity matches class) [1] | PS: anti-psychotic (probability that activity matches class) [1] | SD: sedative hypnotic (probability that activity matches class) [1] | UN: uncharacterized CNS activity (probability that activity matches class) [1] | minimal effective dose (i.p.) [mg/kg] | AD: ADHD (probability that activity matches class) [2] | AG: analgesic (probability that activity matches class) [2] | AX: anxiolytic (probability that activity matches class) [2] | CE: cognitive enhancer (probability that activity matches class) [2] | DP: anti-depressant (probability that activity matches class) [2] | MS: mood stabilizer (probability that activity matches class) [2] | PS: anti-psychotic (probability that activity matches class) [2] | SD: sedative hypnotic (probability that activity matches class) [2] | UN: uncharacterized CNS activity (probability that activity matches class) [2] |
| --- | --- | --- | --- | --- | --- | --- | --- | --- | --- | --- | --- | --- | --- | --- | --- | --- | --- | --- | --- | --- |
| NC[C@H]1OCCc2c1cccc2-n1ccnc1 [Compound 185, (S)-(5-(1H-Imidazol-1-yl)isochroman-1-yl)methanamine hydrochloride salt] | 10 to 30 | + (LOQ ≤ + <5%) | + (LOQ ≤ + <5%) | ++ (5% ≤ ++ <25%) | + (LOQ ≤ + <5%) | ++ (5% ≤ ++ <25%) | + (LOQ ≤ + <5%) | + (LOQ ≤ + <5%) | + (LOQ ≤ + <5%) | + (LOQ ≤ + <5%) |  |  |  |  |  |  |  |  |  |  |
| NC[C@H]1OCCCc2c(-c3cncs3)cccc21 (single isomer, unassigned) [Compound 171, hydrochloride salt] |  |  |  |  |  |  |  |  |  |  | 10 to 30 | + (LOQ ≤ + <5%) | + (LOQ ≤ + <5%) | + (LOQ ≤ + <5%) | + (LOQ ≤ + <5%) | + (LOQ ≤ + <5%) | + (LOQ ≤ + <5%) | + (LOQ ≤ + <5%) | + (LOQ ≤ + <5%) | + (LOQ ≤ + <5%) |
| NCC1OCCc2ccc(-c3ccncn3)cc21 (stereo not shown) [Compound 57, 7-(Pyrimidin-4-yl)isochroman-1-yl)methanamine hydrochloride] |  |  |  |  |  |  |  |  |  |  | 10 to 30 | + (LOQ ≤ + <5%) | + (LOQ ≤ + <5%) | + (LOQ ≤ + <5%) | ++ (5% ≤ ++ <25%) | ++ (5% ≤ ++ <25%) | + (LOQ ≤ + <5%) | ++ (5% ≤ ++ <25%) | ++ (5% ≤ ++ <25%) | +++ (25% ≤ +++ <50%) |
| NCC1OCCc2c(-c3cccnn3)cccc21 (stereo not shown) [Compound 62, (5-(Pyridazin-3-yl)isochroman-1-yl)methanaminehydrochloride salt] |  |  |  |  |  |  |  |  |  |  | > 30 | + (LOQ ≤ + <5%) | + (LOQ ≤ + <5%) | ++ (5% ≤ ++ <25%) | + (LOQ ≤ + <5%) | ++ (5% ≤ ++ <25%) | + (LOQ ≤ + <5%) | + (LOQ ≤ + <5%) | + (LOQ ≤ + <5%) | + (LOQ ≤ + <5%) |
| CNC[C@H]1OCCc2c(-c3cocn3)cccc21 [Compound 103, (S)—N-methyl-1-(5-(oxazol-4-yl)isochroman-1-yl)methanamine HCl salt] |  |  |  |  |  |  |  |  |  |  | ≤ 3 | ++ (5% ≤ ++ <25%) | + (LOQ ≤ + <5%) | ++ (5% ≤ ++ <25%) | + (LOQ ≤ + <5%) | ++++ (50% ≤ ++++) | + (LOQ ≤ + <5%) | + (LOQ ≤ + <5%) | + (LOQ ≤ + <5%) | + (LOQ ≤ + <5%) |
| NC[C@@H]1OCCc2c(-c3ccon3)cccc21 (single isomer, unassigned) [Compound 88, hydrochloride salt] |  |  |  |  |  |  |  |  |  |  | 10 to 30 | + (LOQ ≤ + <5%) | + (LOQ ≤ + <5%) | ++ (5% ≤ ++ <25%) | + (LOQ ≤ + <5%) | ++ (5% ≤ ++ <25%) | + (LOQ ≤ + <5%) | + (LOQ ≤ + <5%) | + (LOQ ≤ + <5%) | + (LOQ ≤ + <5%) |
| NC[C@H]1OCCc2cc(-c3cccnc3)ccc21 [Compound 14, hydrochloride salt] |  |  |  |  |  |  |  |  |  |  | 3 to 10 | + (LOQ ≤ + <5%) | ++ (5% ≤ ++ <25%) | ++ (5% ≤ ++ <25%) | + (LOQ ≤ + <5%) | ++++ (50% ≤ ++++) | + (LOQ ≤ + <5%) | + (LOQ ≤ + <5%) | + (LOQ ≤ + <5%) | ++ (5% ≤ ++ <25%) |
| CNC[C@H]1OCCc2c(-c3ncccn3)cccc21 [Compound 23, (S)—N-Methyl-1-(5-(pyrimidin-2-yl)isochroman-1-yl)methanamine hydrochloride salt] |  |  |  |  |  |  |  |  |  |  | 10 to 30 | ++ (5% ≤ ++ <25%) | ++ (5% ≤ ++ <25%) | ++ (5% ≤ ++ <25%) | + (LOQ ≤ + <5%) | ++++ (50% ≤ ++++) | + (LOQ ≤ + <5%) | + (LOQ ≤ + <5%) | + (LOQ ≤ + <5%) | + (LOQ ≤ + <5%) |
| NC[C@H]1OCCc2c(-c3ccncn3)cccc21 (single isomer, unassigned) [Compound 75, hydrochloride salt] |  |  |  |  |  |  |  |  |  |  | 3 to 10 | + (LOQ ≤ + <5%) | + (LOQ ≤ + <5%) | ++ (5% ≤ ++ <25%) | + (LOQ ≤ + <5%) | ++++ (50% ≤ ++++) | + (LOQ ≤ + <5%) | + (LOQ ≤ + <5%) | + (LOQ ≤ + <5%) | ++ (5% ≤ ++ <25%) |
| CNC[C@H]1OCCc2c(-c3ccccc3)cccc21 (single isomer, unassigned) [Compound 129, hydrochloride salt] |  |  |  |  |  |  |  |  |  |  | 3 to 10 | + (LOQ ≤ + <5%) | + (LOQ ≤ + <5%) | + (LOQ ≤ + <5%) | ++ (5% ≤ ++ <25%) | ++++ (50% ≤ ++++) | + (LOQ ≤ + <5%) | + (LOQ ≤ + <5%) | ++ (5% ≤ ++ <25%) | + (LOQ ≤ + <5%) |
| NCC1OCCc2c(-c3ccncn3)cccc21 (stereo not shown) [Compound 60, (5-(Pyrimidin-4-yl)isochroman-1-yl)methanamine hydrochloride salt] |  |  |  |  |  |  |  |  |  |  | 3 to 10 | + (LOQ ≤ + <5%) | ++ (5% ≤ ++ <25%) | ++ (5% ≤ ++ <25%) | + (LOQ ≤ + <5%) | ++++ (50% ≤ ++++) | + (LOQ ≤ + <5%) | + (LOQ ≤ + <5%) | + (LOQ ≤ + <5%) | + (LOQ ≤ + <5%) |
| CNC[C@@H]1OCc2c(-c3cccnc3)cccc21 [Compound 33, (R)—N-Methyl-1-(4-(pyridin-3-yl)-1,3-dihydroisobenzofuran-1-yl)methanamine hydrochloride salt] |  |  |  |  |  |  |  |  |  |  | 10 to 30 | + (LOQ ≤ + <5%) | + (LOQ ≤ + <5%) | ++ (5% ≤ ++ <25%) | + (LOQ ≤ + <5%) | ++++ (50% ≤ ++++) | + (LOQ ≤ + <5%) | + (LOQ ≤ + <5%) | + (LOQ ≤ + <5%) | + (LOQ ≤ + <5%) |
| CNC[C@H]1OCCCc2c(-c3cncs3)cccc21 (single isomer, unassigned) [Compound 169, hydrochloride salt] |  |  |  |  |  |  |  |  |  |  | 10 to 30 | + (LOQ ≤ + <5%) | + (LOQ ≤ + <5%) | + (LOQ ≤ + <5%) | + (LOQ ≤ + <5%) | + (LOQ ≤ + <5%) | + (LOQ ≤ + <5%) | + (LOQ ≤ + <5%) | + (LOQ ≤ + <5%) | + (LOQ ≤ + <5%) |
